Like-named read-outs stand apart in the source and are kept apart here. Some results are limits rather than exact numbers.

The subject of one series is E. coli biofilm. The series can be described thus: Photoinactivation of 48-hour in vitro biofilms by adjuvant/antibiotic + antimicrobial blue light. The format is cell-based, Escherichia coli. How it is done: The bacterial suspension was grown in a shaking incubator overnight in BHI broth. Cells were collected by centrifugation at 4,000 rpm for 5 minutes and suspended in PBS at a density of 10^6 CFU/mL. Then, the biofilms were grown for 48 hours (unless otherwise specified) in 96-well microtiter plates as described previously [Ref. 27], with a renewal of the media every 24 hours. Following the 48-hour biofilm growth, fresh 200 μL of PBS with or without menadione in different concentrations were added to the wells and the biofilms were incubated in the dark at 25° C. for 1 hour: 0, 0.5, 1, and 2 μg/mL for MRSA USA300, AF0001, IQ0064; 0, 1, 10, 30 and 50 μg/mL for P. aeruginosa PA01; and 0, 100, and 150 μg/mL for E. coli ATCC 25922. After that, the control and the menadione-treated biofilms were maintained without irradiation (“menadione/dark”). Simultaneously, the aBL was delivered to the other biofilm groups testing different power densities (50, 30, 15, and 10 mW/cm^2) while keeping the same radiant exposure of 250 J/cm^2. After the light exposure, the biofilms were carefully washed two times with PBS and 200 μL of PBS was added to each well. Then, the bacterial biofilms in each well were harvested by scratching with a sterile pipette tip and three wells of each group were pooled together in a 1.5 mL microcentrifuge tube. The total volume obtained, 600 μL (3 wells), was sonicated using a Branson 2510 Water Bath Sonicator (Marshall Scientific, LLC) for 5 minutes and the CFU was determined by 10-fold serial dilutions in PBS on BHI agar plates. CFU was counted after overnight incubation at 37° C. Experiments were performed in triplicate.
A bacterial suspension was grown in a shaking incubator overnight in BHI broth. Cells were collected by centrifugation at 4,000 rpm for 5 minutes and suspended in PBS at a density of 10^6 CFU/mL. Then, the biofilms were grown for 48 hours in 96-well microtiter plates with a renewal of the media every 24 hours. Following the 48-hour biofilm growth, fresh 200 μL of PBS with the tetracyclines minocycline, doxycycline, and demeclocycline in different concentrations were added to the wells and the biofilms were incubated in the dark at 25° C. for 1 hour: 0, 0.25, 0.5, and 1 μg/mL for minocycline; 0, 0.5, 1, and 2 μg/mL for doxycycline; and 0, 0.5, 1, and 2 for demeclocycline. After that, the control and the tetracycline-treated biofilms were maintained without irradiation (“menadione/dark”). […] The total volume obtained, 600 μL (3 wells), was sonicated using a Branson 2510 Water Bath Sonicator (Marshall Scientific, LLC) for 5 minutes and the CFU/mL was determined by 10-fold serial dilutions in PBS on BHI agar plates. CFU was counted after overnight incubation at 37° C.

The test system of a further series is E. coli. Kind of series: MIC of menadione by broth microdilution, with or without aBL. The format is cell-based, Escherichia coli ATCC 25922. The method, then: The MICs of menadione in different bacterial strains were determined by a standard broth microdilution assay according to the Clinical and Laboratory Standards Institute. Briefly, menadione was prepared at 100 mg/mL in Tween 80/DMSO (1:1) as a stock solution. The stock solution was diluted to 2048 μg/mL in BHI and then serial dilutions were performed to 1024-0.015 μg/mL in a 96-well plate. Then, a 10 μL stationary growth-phase culture of 10^8 CFU/mL bacteria in BHI broth was added to the 96-well plate containing the serial dilutions of menadione. The medium containing a similar amount of Tween 80/DMSO (1:1) served as a control. The microplates were incubated at 37° C. for 24 hours and the lowest concentration of the compound capable of completely inhibiting bacterial growth was referred to as the MIC.
However, we investigated the effects of aBL (50 mW/cm^2) in potentiating the antibacterial activities of menadione in the three strains of bacteria. […] The highest fluence that we investigated was 125 J/cm^2, when we irradiated the bacteria for 42 minutes.
On the technique in general: Dilution methods test growth across graded concentrations, often in twofold steps.

The nature of series [1]: Solubility of menadione in aqueous solution. The series is classed as physicochemical. How it is done: Thus, we dissolved the menadione in two conditions: in PBS containing either 1% DMSO or 1% DMSO/Tween80 at 400 μM. Tween 80 is a surfactant and the idea is to mix with the DMSO before to add to PBS is due to necessity to improve the solubility of menadione in aqueous solution. We measured the absorption spectrum in both conditions to analyze if there is any change in optical properties. The range of wavelength absorption of menadione was measured between 200-800 nm (see FIG. 12B) to choose the optimum wavelength of the light absorption spectra. […] The maximum wavelength of absorption found was 340 nm for both conditions. […] The molar absorptivity coefficient was compared in different wavelength according with the Table 1.

Another series relates to MRSA. The series can be described thus: Photoinactivation of planktonic cultures by menadione + antimicrobial blue light. To be noted: menadione ⅛ MIC + aBL 90 J/cm^2 (50 mW/cm^2), 405 nm. The series is classed as cell-based, methicillin-resistant Staphylococcus aureus. How it is done: The bacterial cells were grown in BHI broth medium shaken overnight. Cells were collected by centrifugation at 4,000 rpm for 5 minutes and suspended in PBS at a density of 10^8 colony-forming units (CFU)/mL (estimated by measuring the optical density at 600 nm; O.D 0.1=10^8 cells/mL). The microbial suspension in PBS was transferred to a 35×12-mm dish and mixed with different concentrations of menadione: 0, 0.5, 1 and 2 μg/mL for MRSA USA300, AF003 and IQ0064; 0, 1, 10 and 30 μg/mL for P. aeruginosa PA01; and 0, 16, 32, 64 and 128 μg/mL for E. coli ATCC 25922. After incubation in the dark at 25° C. for 1 hour, the planktonic suspension of cells at room temperature was irradiated using aBL (405 nm) at 50 mW/cm^2 with different radiant exposures (0-250 J/cm^2). During the aBL irradiation, 40 μL of samples were withdrawn every 15 minutes, and the CFUs were determined by 10-fold serial dilutions in PBS (10-1 to 10-7 dilution factors), plated on BHI agar plates as described previously [Ref. 17]. CFUs were counted after overnight incubation at 37° C. Experiments were performed in triplicate.

The MIC is the lowest concentration found to suppress growth. Take `CC1=CC(=O)c2ccccc2C1=O` [menadione, 2-methyl-1,4-naphthoquinone]: the “biofilm reduction by menadione without irradiation” value in the series on E. coli biofilm (48 h biofilm, dark) is under 1 log killing. Besides, the “biofilm eradicated by menadione plus aBL” value in the series with E. coli biofilm (48 h biofilm, 100 μg/mL menadione + aBL 250 J/cm^2 (50 mW/cm^2)) was 4.8 log10 CFU/mL. In the series on E. coli biofilm (48 h in vitro biofilm, menadione + aBL), the “enhancement of killing in comparison with aBL alone” value is 1 log-fold. The MIC in the series on E. coli (Escherichia coli, light or radiation study, 5 min, aBL 15.62 J/cm^2 (5 mins.), 50 mW/cm^2, read-out: MIC) is 256 µg/mL; in the series with E. coli (Escherichia coli, light or radiation study, 0.175 h, aBL 31.25 J/cm^2 (10.5 mins.), 50 mW/cm^2, read-out: MIC), 256 µg/mL; with E. coli (Escherichia coli, light or radiation study, 0.35 h, aBL 62.5 J/cm^2 (21 mins.), 50 mW/cm^2, read-out: MIC), 4 µg/mL; with E. coli (Escherichia coli, light or radiation study, 0 J/cm^2 (Dark), read-out: MIC), 512 µg/mL; with E. coli (aBL 125 J/cm^2 (42 mins.), 50 mW/cm^2), “completely eradicated”. The “solubility in aqueous solution” value in series [1] (PBS with 1% DMSO/Tween80 vs 1% DMSO) is listed as “best solubility”. Further, in series [1] (water), the solubility in water result is “not soluble in water”. In the series with MRSA, the “eradication by aBL combined with menadione” value came out at 4.59 log10 CFU/mL.

The record behind these values is patent US20240416143A1, “PHOTONIC ANTIMICROBIAL WOUND SURFACE DRESSING” (The General Hospital Corporation, priority 2021, published 2024).
